Assay results reported in patent US11306101B2 (Celgene Corporation, priority 2019, dated 2022).

Target: T1, CK1α (Homo sapiens, UniProt P48729+Q96SW2)
T1 construct: expressed in transfected cells
Experiment: CK1α ePL degradation assay in MDS-L cells
Assay type: cell-based
Settings: MDS-L cells expressing ePL-tagged CK1α; for DC50: concentration giving 50% CK1α degradation vs DMSO control; for Y: lowest measured CK1α level normalized to DMSO control
Experimental: The following is an example of an assay that can be used to determine the CK1α degradation activity of Isoindolinone Carboxamide Compounds in a cell line, for example, the MDS-L cell line.
Compounds were dispensed by an acoustic dispenser (ATS acoustic transfer system from EDC Biosystems) into a 384-well in a 10 point dose-response curve using 3-fold dilutions starting at 10 μM and going down to 0.0005 μM in DMSO. […] Assay plates were incubated at 37° C. with 5% CO2 for the indicated times. At the different time points, 25 μL of the InCELL Hunter™ Detection Reagent Working Solution (catalog number 96-0002, DiscoverX, Fremont, Calif.) was added to each well and incubated at RT for 30 min protected from light. After 30 min, luminescence was read on a PHERAstar luminometer (BMG LABTECH, Cary, N.C.).
CK1α levels in compound-treated wells were normalized to that of DMSO control and expressed as percent of control (PoC) (y).
The lowest measured CK1α level normalized to DMSO control in response to compound treatment, termed Y value, was used to characterize the compound-mediated CK1α degradation efficiency.

T1 sequence (P48729 whole entry): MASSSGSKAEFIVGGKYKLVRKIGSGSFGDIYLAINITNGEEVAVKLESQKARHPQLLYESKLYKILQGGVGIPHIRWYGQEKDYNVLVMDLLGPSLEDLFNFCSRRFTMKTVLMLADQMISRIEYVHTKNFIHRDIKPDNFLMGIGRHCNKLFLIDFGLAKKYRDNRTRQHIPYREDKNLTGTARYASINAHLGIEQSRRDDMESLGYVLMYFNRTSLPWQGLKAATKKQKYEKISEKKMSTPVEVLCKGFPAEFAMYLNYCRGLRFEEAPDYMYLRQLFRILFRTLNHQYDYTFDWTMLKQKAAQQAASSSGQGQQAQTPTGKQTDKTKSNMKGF
T1 sequence (Q96SW2 whole entry): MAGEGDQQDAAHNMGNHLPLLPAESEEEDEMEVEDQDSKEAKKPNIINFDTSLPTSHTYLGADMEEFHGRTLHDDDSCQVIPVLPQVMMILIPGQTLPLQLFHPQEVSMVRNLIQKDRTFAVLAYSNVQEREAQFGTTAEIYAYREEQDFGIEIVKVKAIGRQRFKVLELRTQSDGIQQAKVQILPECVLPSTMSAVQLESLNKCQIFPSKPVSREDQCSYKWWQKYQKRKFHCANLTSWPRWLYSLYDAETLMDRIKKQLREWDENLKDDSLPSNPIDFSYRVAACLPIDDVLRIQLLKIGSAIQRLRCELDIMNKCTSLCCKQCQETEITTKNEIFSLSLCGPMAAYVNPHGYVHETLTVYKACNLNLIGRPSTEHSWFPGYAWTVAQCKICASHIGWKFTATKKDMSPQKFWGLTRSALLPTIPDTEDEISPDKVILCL
T1 sequence (Q16531 whole entry partner): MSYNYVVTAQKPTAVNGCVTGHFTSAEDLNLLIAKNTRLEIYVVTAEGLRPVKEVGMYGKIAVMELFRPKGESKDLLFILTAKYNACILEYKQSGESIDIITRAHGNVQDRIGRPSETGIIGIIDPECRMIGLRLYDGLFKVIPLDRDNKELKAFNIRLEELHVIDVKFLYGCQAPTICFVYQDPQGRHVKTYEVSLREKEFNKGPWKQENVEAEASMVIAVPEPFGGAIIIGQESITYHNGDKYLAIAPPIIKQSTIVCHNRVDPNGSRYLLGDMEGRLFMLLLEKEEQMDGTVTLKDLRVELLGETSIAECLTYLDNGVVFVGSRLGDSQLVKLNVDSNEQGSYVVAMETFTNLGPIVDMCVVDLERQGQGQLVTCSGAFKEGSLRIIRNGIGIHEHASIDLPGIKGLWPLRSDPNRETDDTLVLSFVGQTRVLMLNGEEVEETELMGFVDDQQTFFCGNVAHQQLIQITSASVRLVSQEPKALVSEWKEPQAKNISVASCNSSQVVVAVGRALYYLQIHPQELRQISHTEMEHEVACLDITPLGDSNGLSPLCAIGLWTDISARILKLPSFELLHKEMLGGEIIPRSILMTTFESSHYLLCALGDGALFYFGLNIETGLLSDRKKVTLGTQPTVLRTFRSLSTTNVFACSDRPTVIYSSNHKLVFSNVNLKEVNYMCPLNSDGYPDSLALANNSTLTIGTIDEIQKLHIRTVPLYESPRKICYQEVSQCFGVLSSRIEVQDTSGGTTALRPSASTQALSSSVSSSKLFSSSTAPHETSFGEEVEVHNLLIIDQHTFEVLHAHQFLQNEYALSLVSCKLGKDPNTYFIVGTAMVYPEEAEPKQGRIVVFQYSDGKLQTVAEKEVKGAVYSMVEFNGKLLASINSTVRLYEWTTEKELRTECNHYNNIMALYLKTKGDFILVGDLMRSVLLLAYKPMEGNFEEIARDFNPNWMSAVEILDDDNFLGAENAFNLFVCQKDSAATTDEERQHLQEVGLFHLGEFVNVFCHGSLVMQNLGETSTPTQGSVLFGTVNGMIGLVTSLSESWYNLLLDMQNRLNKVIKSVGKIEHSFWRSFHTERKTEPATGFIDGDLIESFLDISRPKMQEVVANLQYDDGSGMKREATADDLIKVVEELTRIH

| Compound | DC50 | Y |
| --- | --- | --- |
| O=C1CCC(N2Cc3c(ccc(C(=O)N[C@H](c4cccc(F)c4)C(F)(F)F)c3F)C2=O)C(=O)N1 (stereo partly drawn) [Example 108, 2-(2,6-dioxopiperidin-3-yl)-4-fluoro-1-oxo-N-((R)-2,2,2-trifluoro-1-(3-fluorophenyl)ethyl)isoindoline-5-carboxamide] | 100 to 500 nM | ** (a Y value (shown as**) of 20%<Y≤35%) |
| O=C1CCC(N2Cc3cc(C(=O)N[C@@H](c4ccccc4F)C(F)(F)F)ccc3C2=O)C(=O)N1 (stereo partly drawn) [Example 197, 2-(2,6-dioxopiperidin-3-yl)-1-oxo-N-((S)-2,2,2-trifluoro-1-(2-fluorophenyl)ethyl)isoindoline-5-carboxamide] | 500 to 1000 nM | *** (a Y value (shown as***) of 35%<Y<50%) |
| COc1ccccc1[C@@H](NC(=O)c1ccc2c(c1)CN(C1CCC(=O)NC1=O)C2=O)C(F)(F)F (stereo partly drawn) [Example 38, 2-(2,6-dioxopiperidin-3-yl)-1-oxo-N-((R)-2,2,2-trifluoro-1-(2-methoxyphenyl)ethyl)isoindoline-5-carboxamide] | < 100 nM | * (a Y value (shown as *) of 0<Y≤20%) |
| O=C1CCC(N2Cc3cc(C(=O)N[C@H](c4ncccc4Cl)C(F)(F)F)ccc3C2=O)C(=O)N1 (stereo partly drawn) [Example 106, N-((R)-1-(3-chloropyridin-2-yl)-2,2,2-trifluoroethyl)-2-(2,6-dioxopiperidin-3-yl)-1-oxoisoindoline-5-carboxamide] | < 100 nM | * (a Y value (shown as *) of 0<Y≤20%) |
| COc1ccc([C@H](C)NC(=O)c2ccc3c(c2)CN(C2CCC(=O)NC2=O)C3=O)cc1 (stereo partly shown) [Example 12] | < 100 nM | ** (a Y value (shown as**) of 20%<Y≤35%) |
| O=C1CCC(N2Cc3cc(C(=O)N[C@H](c4ccc(Cl)cn4)C(F)(F)F)ccc3C2=O)C(=O)N1 (stereo partly drawn) [Example 109, N-((R)-1-(5-chloropyridin-2-yl)-2,2,2-trifluoroethyl)-2-(2,6-dioxopiperidin-3-yl)-1-oxoisoindoline-5-carboxamide] | < 100 nM | * (a Y value (shown as *) of 0<Y≤20%) |
| C[C@H](NC(=O)c1ccc2c(c1)CN(C1CCC(=O)NC1=O)C2=O)c1cccc(C#N)c1 (stereo partly shown) [Example 11] | 100 to 500 nM | ** (a Y value (shown as**) of 20%<Y≤35%) |
| C[C@H](NC(=O)c1ccc2c(c1)CN(C1CCC(=O)NC1=O)C2=O)C1CCC1 (stereo partly shown) [Example 9] | < 100 nM | ** (a Y value (shown as**) of 20%<Y≤35%) |
| O=C1CCC(N2Cc3cc(C(=O)N[C@H](c4ccccc4F)C(F)(F)F)c(F)cc3C2=O)C(=O)N1 (stereo partly drawn) [Example 99, 2-(2,6-dioxopiperidin-3-yl)-6-fluoro-1-oxo-N-((R)-2,2,2-trifluoro-1-(2-fluorophenyl)ethyl)isoindoline-5-carboxamide] | 100 to 500 nM | ** (a Y value (shown as**) of 20%<Y≤35%) |
| O=C1CCC(N2Cc3cc(C(=O)N[C@H](c4cccc(F)c4)C(F)(F)F)ccc3C2=O)C(=O)N1 (stereo partly drawn) [Example 37, 2-(2,6-dioxopiperidin-3-yl)-1-oxo-N-((R)-2,2,2-trifluoro-1-(3-fluorophenyl)ethyl)isoindoline-5-carboxamide] | < 100 nM | ** (a Y value (shown as**) of 20%<Y≤35%) |
| O=C1CC[C@H](N2Cc3cc(C(=O)N[C@H](c4ccc(F)cc4)C(F)(F)F)ccc3C2=O)C(=O)N1 [Example 103, 2-((S)-2,6-dioxopiperidin-3-yl)-1-oxo-N-((R)-2,2,2-trifluoro-1-(4-fluorophenyl)ethyl)isoindoline-5-carboxamide] | < 100 nM | * (a Y value (shown as *) of 0<Y≤20%) |
| C[C@H](NC(=O)c1ccc2c(c1)CN(C1CCC(=O)NC1=O)C2=O)c1ccc(Cl)cc1F (stereo partly drawn) [Example 55, N-((S)-1-(4-chloro-2-fluorophenyl)ethyl)-2-(2,6-dioxopiperidin-3-yl)-1-oxoisoindoline-5-carboxamide] | < 100 nM | * (a Y value (shown as *) of 0<Y≤20%) |
| C[C@H](NC(=O)c1ccc2c(c1)CN(C1CCC(=O)NC1=O)C2=O)C1CCCC1 (stereo partly shown) [Example 3] | < 100 nM | * (a Y value (shown as *) of 0<Y≤20%) |
| O=C1CCC(N2Cc3c(ccc(C(=O)N[C@H](c4ccc(F)cc4F)C(F)(F)F)c3F)C2=O)C(=O)N1 (stereo partly drawn) [Example 105, N-((R)-1-(2,4-difluorophenyl)-2,2,2-trifluoroethyl)-2-(2,6-dioxopiperidin-3-yl)-4-fluoro-1-oxoisoindoline-5-carboxamide] | < 100 nM | * (a Y value (shown as *) of 0<Y≤20%) |

The remaining lines, values ahead:

| DC50 | Y | Compound |
| --- | --- | --- |
| < 100 nM | * (a Y value (shown as *) of 0<Y≤20%) | CN(C)Cc1ccc([C@@H](NC(=O)c2ccc3c(c2F)CN(C2CCC(=O)NC2=O)C3=O)C(F)(F)F)cc1 (stereo partly drawn) [Example 186, N-((R)-1-(4-((dimethylamino)methyl)phenyl)-2,2,2-trifluoroethyl)-2-(2,6-dioxopiperidin-3-yl)-4-fluoro-1-oxoisoindoline-5-carboxamide] |
| < 100 nM | * (a Y value (shown as *) of 0<Y≤20%) | O=C1CCC(N2Cc3c(ccc(C(=O)N[C@@H](C(F)(F)F)C45CC(C4)C5)c3F)C2=O)C(=O)N1 (stereo partly drawn) [Example 138, N-((R)-1-(bicyclo[1.1.1]pentan-1-yl)-2,2,2-trifluoroethyl)-2-(2,6-dioxopiperidin-3-yl)-4-fluoro-1-oxoisoindoline-5-carboxamide] |
| < 100 nM | * (a Y value (shown as *) of 0<Y≤20%) | O=C1CCC(N2Cc3cc(C(=O)N[C@H](c4ccc(Cl)cc4Cl)C(F)(F)F)ccc3C2=O)C(=O)N1 (stereo partly drawn) [Example 163, N-((R)-1-(2,4-dichlorophenyl)-2,2,2-trifluoroethyl)-2-(2,6-dioxopiperidin-3-yl)-1-oxoisoindoline-5-carboxamide] |
| < 100 nM | * (a Y value (shown as *) of 0<Y≤20%) | CN(C)Cc1ccc([C@@H](NC(=O)c2ccc3c(c2)CN(C2CCC(=O)NC2=O)C3=O)C(F)(F)F)c(Cl)c1 (stereo partly drawn) [Example 198, N-((R)-1-(2-chloro-4-((dimethylamino)methyl)phenyl)-2,2,2-trifluoroethyl)-2-(2,6-dioxopiperidin-3-yl)-1-oxoisoindoline-5-carboxamide] |
| < 100 nM | * (a Y value (shown as *) of 0<Y≤20%) | O=C1CCC(N2Cc3cc(C(=O)N[C@H](c4ccc(CN5CCC5)cc4)C(F)(F)F)ccc3C2=O)C(=O)N1 (stereo partly drawn) [Example 189, N-((R)-1-(4-(azetidin-1-ylmethyl)phenyl)-2,2,2-trifluoroethyl)-2-(2,6-dioxopiperidin-3-yl)-1-oxoisoindoline-5-carboxamide] |
| < 100 nM | * (a Y value (shown as *) of 0<Y≤20%) | O=C1CCC(N2Cc3cc(C(=O)N[C@H](c4cccc(N5CCOCC5)c4)C(F)(F)F)ccc3C2=O)C(=O)N1 (stereo partly drawn) [Example 201, 2-(2,6-dioxopiperidin-3-yl)-1-oxo-N-((R)-2,2,2-trifluoro-1-(3-morpholinophenyl)ethyl)isoindoline-5-carboxamide] |
| 100 to 500 nM | ** (a Y value (shown as**) of 20%<Y≤35%) | O=C1CCC(N2Cc3cc(C(=O)N[C@H](c4ccc(Oc5ccccc5)cc4)C(F)(F)F)ccc3C2=O)C(=O)N1 (stereo partly drawn) [Example 147, 2-(2,6-dioxopiperidin-3-yl)-1-oxo-N-((R)-2,2,2-trifluoro-1-(4-phenoxyphenyl)ethyl)isoindoline-5-carboxamide] |
| < 100 nM | * (a Y value (shown as *) of 0<Y≤20%) | O=C1CCC(N2Cc3cc(C(=O)N[C@H](c4ncc(F)cc4Cl)C(F)(F)F)ccc3C2=O)C(=O)N1 (stereo partly drawn) [Example 175, N-((R)-1-(3-chloro-5-fluoropyridin-2-yl)-2,2,2-trifluoroethyl)-2-(2,6-dioxopiperidin-3-yl)-1-oxoisoindoline-5-carboxamide] |
| 100 to 500 nM | ** (a Y value (shown as**) of 20%<Y≤35%) | O=C1CCC(N2Cc3cc(C(=O)N[C@H](c4ccc(CN5CC(F)(F)C5)cc4)C(F)(F)F)ccc3C2=O)C(=O)N1 (stereo partly drawn) [Example 188, N-((R)-1-(4-((3,3-difluoroazetidin-1-yl)methyl)phenyl)-2,2,2-trifluoroethyl)-2-(2,6-dioxopiperidin-3-yl)-1-oxoisoindoline-5-carboxamide] |
| < 100 nM | * (a Y value (shown as *) of 0<Y≤20%) | O=C1CCC(N2Cc3cc(C(=O)N[C@H](c4ccccc4N4CCOCC4)C(F)(F)F)ccc3C2=O)C(=O)N1 (stereo partly drawn) [Example 205, 2-(2,6-dioxopiperidin-3-yl)-1-oxo-N-((R)-2,2,2-trifluoro-1-(2-morpholinophenyl)ethyl)isoindoline-5-carboxamide] |
| 100 to 500 nM | ** (a Y value (shown as**) of 20%<Y≤35%) | O=C1CCC(N2Cc3c(ccc(C(=O)N[C@H](c4ccc(OC(F)(F)F)cc4)C(F)(F)F)c3F)C2=O)C(=O)N1 (stereo partly drawn) [Example 135, 2-(2,6-dioxopiperidin-3-yl)-4-fluoro-1-oxo-N-((R)-2,2,2-trifluoro-1-(4-(trifluoromethoxy)phenyl)ethyl)isoindoline-5-carboxamide] |
| < 100 nM | ** (a Y value (shown as**) of 20%<Y≤35%) | C[C@@H](NC(=O)c1ccc2c(c1)CN(C1CCC(=O)NC1=O)C2=O)c1ccccc1C#N (stereo partly drawn) [Example 131, N-((R)-1-(2-cyanophenyl)ethyl)-2-(2,6-dioxopiperidin-3-yl)-1-oxoisoindoline-5-carboxamide] |
